Source: US20230339886A1 (University of Florida Research Foundation, Incorporated, priority 2020, published 2023)

Biological target: T1, REV-ERBα LBD (human; residues 281-614 Δ324-422) (Homo sapiens, UniProt P20393, DEL324-422)
T1 construct: 6×Histag-REV-ERBα LBD (human; residues 281-614 Δ324-422); made in house; host or cells: Escherichia coli
Test: TR-FRET corepressor interaction assay (REV-ERBα LBD, FITC-SMRT peptide)
Format: biochemical
Settings: FITC-SMRT peptide, read-out: REVERBα agonism (EC50 class, FRET assay)
Outline: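 Compound serial dilutions (in DMSO, triplicate) incubated 2 h at 4 °C; Tb donor excited at 340 nm, emission read at 495 nm and FITC acceptor at 520 nm. TR-FRET ratio (520/495 nm) plotted against ligand concentration and fitted to a sigmoidal dose-response curve.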

T1 sequence (P20393 with tags, fused parts or gaps DEL324-422): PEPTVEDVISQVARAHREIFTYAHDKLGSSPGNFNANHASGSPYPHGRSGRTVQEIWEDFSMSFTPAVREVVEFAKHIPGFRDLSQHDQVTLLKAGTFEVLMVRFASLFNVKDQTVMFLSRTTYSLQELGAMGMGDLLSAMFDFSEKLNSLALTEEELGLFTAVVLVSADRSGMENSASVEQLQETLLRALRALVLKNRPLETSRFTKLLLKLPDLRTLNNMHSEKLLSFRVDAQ
T1 sequence (Q9Y618 2335-2356 partner limits assumed): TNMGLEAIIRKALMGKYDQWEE

Row | EC50 | SMILES
1 | < 500 nM | CC(C)(C)Cn1cc([C@H](NS(=O)(=O)C2CCC2)C(F)F)c2cc(F)c(-c3ccccc3C(F)(F)F)cc21 [Example 435, (S)—N-(2,2-difluoro-1-(5-fluoro-1-neopentyl-6-(2-(trifluoromethyl)phenyl)-1H-indol-3-yl)ethyl)cyclobutanesulfonamide]
2 | < 500 nM | CC(C)(C)Cn1cc([C@@H](CF)NS(=O)(=O)C2CCC2)c2cc(F)c(-c3ccccc3C(F)(F)F)cc21 [Example 436, (S)—N-(2-fluoro-1-(5-fluoro-1-neopentyl-6-(2-(trifluoromethyl)phenyl)-1H-indol-3-yl)ethyl)cyclobutanesulfonamide]
3 | 500 to 3000 nM | CC(C)(C)Cn1cc([C@H](NS(=O)(=O)C2CC(F)C2)C(F)(F)F)c2ccc(-c3ccccc3C(F)(F)F)cc21 (stereo partly drawn) [Example 437, (S)-3-fluoro-N-(2,2,2-trifluoro-1-(1-neopentyl-6-(2-(trifluoromethyl)phenyl)-1H-indol-3-yl)ethyl)cyclobutane-1-sulfonamide]
4 | < 500 nM | CCCn1cc([C@H](NS(=O)(=O)C2CCC2)C(F)(F)F)c2ccc(-c3ccccc3C(F)(F)F)cc21 [Example 438, (S)—N-(2,2,2-trifluoro-1-(1-propyl-6-(2-(trifluoromethyl)phenyl)-1H-indol-3-yl)ethyl)cyclobutanesulfonamide]
5 | 500 to 3000 nM | NC(=O)c1cccc(F)c1-c1ccc2c([C@H](NS(=O)(=O)C3CCC3)C(F)(F)F)cn(C3CCC3)c2c1 [Example 439, (S)-2-(3-(1-(cyclobutanesulfonamido)-2,2,2-trifluoroethyl)-1-cyclobutyl-1H-indol-6-yl)-3-fluorobenzamide]
6 | < 500 nM | CC(C)(C)Cn1cc([C@H](NS(=O)(=O)C2CCC2)C(F)(F)F)c2cc(F)c(-c3ccccc3C#N)cc21 [Example 440, (S)—N-(1-(6-(2-cyanophenyl)-5-fluoro-1-neopentyl-1H-indol-3-yl)-2,2,2-trifluoroethyl)cyclobutanesulfonamide]
7 | < 500 nM | CC(C)(C)Cn1cc([C@H](NS(=O)(=O)C2CCC2)C(F)(F)F)c2cc(F)c(-c3cnccc3C#N)cc21 [Example 441, (S)—N-(1-(6-(4-cyanopyridin-3-yl)-5-fluoro-1-neopentyl-1H-indol-3-yl)-2,2,2-trifluoroethyl)cyclobutanesulfonamide]
8 | 500 to 3000 nM | CC(F)(F)Cn1cc([C@H](NS(=O)(=O)C2CCC2)C(F)(F)F)c2ccc(-c3ccccc3C(F)(F)F)cc21 [Example 442, (S)—N-(1-(1-(2,2-difluoropropyl)-6-(2-(trifluoromethyl)phenyl)-1H-indol-3-yl)-2,2,2-trifluoroethyl)cyclobutanesulfonamide]
9 | < 500 nM | CC(C)(C)Cn1cc([C@H](NS(=O)(=O)C2CCC2)C(F)(F)F)c2cc(F)c(-c3ncccc3C(F)(F)F)cc21 [Example 444, (S)—N-(2,2,2-trifluoro-1-(5-fluoro-1-neopentyl-6-(3-(trifluoromethyl)pyridin-2-yl)-1H-indol-3-yl)ethyl)cyclobutanesulfonamide]
10 | < 500 nM | [2H]C(C)(NS(=O)(=O)C1CCC1)c1cn(CC(C)(C)C)c2cc(-c3ccccc3C(F)(F)F)ccc12 (stereo not drawn) [Example 445, N-(1-(1-neopentyl-6-(2-(trifluoromethyl)phenyl)-1H-indol-3-yl)ethyl-1-d)cyclobutanesulfonamide]
11 | < 500 nM | CCC(C)n1cc([C@H](NS(=O)(=O)C2CCC2)C(F)(F)F)c2ccc(-c3ccccc3C(F)(F)F)cc21 (stereo partly drawn) [Example 446, N-((1S)-1-(1-(sec-butyl)-6-(2-(trifluoromethyl)phenyl)-1H-indol-3-yl)-2,2,2-trifluoroethyl)cyclobutanesulfonamide]
12 | < 500 nM | CC(C)Cn1cc([C@H](NS(=O)(=O)C2CC2)C(F)(F)F)c2cc(F)c(-c3ccnc4c3CCCC4)cc21 [Example 454, N-[(1S)-2,2,2-trifluoro-1-[5-fluoro-1-isobutyl-6-(5,6,7,8-tetrahydroquinolin-4-yl)indol-3-yl]ethyl]cyclopropanesulfonamide]
13 | < 500 nM | CC(C)Cn1cc([C@H](NS(=O)(=O)C2CC2)C(F)(F)F)c2cc(F)c(-c3ccncn3)cc21 [Example 455, (S)—N-(2,2,2-trifluoro-1-(5-fluoro-1-isobutyl-6-(pyrimidin-4-yl)-1H-indol-3-yl)ethyl)cyclopropanesulfonamide]
14 | 500 to 3000 nM | Cc1cn[nH]c1-c1cc2c(cc1F)c([C@H](NS(=O)(=O)C1CC1)C(F)(F)F)cn2CC(C)C [Example 456, (S)—N-(2,2,2-trifluoro-1-(5-fluoro-1-isobutyl-6-(4-methyl-1H-pyrazol-5-yl)-1H-indol-3-yl)ethyl)cyclopropanesulfonamide]
15 | 500 to 3000 nM | CC(C)Cn1cc([C@H](NS(=O)(=O)C2CC2)C(F)(F)F)c2cc(F)c(-c3cscn3)cc21 [Example 457, N-[(1S)-2,2,2-trifluoro-1-(5-fluoro-1-isobutyl-6-thiazol-4-yl-indol-3-yl)ethyl]cyclopropanesulfonamide]
16 | 500 to 3000 nM | CC(C)(C)Cn1cc([C@H](NS(=O)(=O)C2CC2)C(F)(F)F)c2cc(C(F)(F)F)c(-c3ccncc3)cc21 [Example 458, (S)—N-(2,2,2-trifluoro-1-(1-neopentyl-6-(pyridin-4-yl)-5-(trifluoromethyl)-1H-indol-3-yl)ethyl)cyclopropanesulfonamide]
17 | < 500 nM | CC(C)(C)Cn1cc([C@H](NS(=O)(=O)C2COC2)C(F)(F)F)c2cc(F)c(-c3ccccc3C(F)(F)F)cc21 [Example 459, (S)—N-(2,2,2-trifluoro-1-(5-fluoro-1-neopentyl-6-(2-(trifluoromethyl)phenyl)-1H-indol-3-yl)ethyl)oxetane-3-sulfonamide]
18 | < 500 nM | CC(C)(C)Cn1cc([C@H](NS(=O)(=O)C2CC2)C(F)(F)F)c2ccc(-c3c(F)cccc3C#N)cc21 [Example 460, (S)—N-(1-(6-(2-cyano-6-fluorophenyl)-1-neopentyl-1H-indol-3-yl)-2,2,2-trifluoroethyl)cyclopropanesulfonamide]
19 | > 3000 nM | CC(C)(C)Cn1cc([C@H](NS(=O)(=O)C2CCOC2)C(F)(F)F)c2cc(F)c(-c3ccccc3C(F)(F)F)cc21 (stereo partly drawn) [Example 461, N—((S)-2,2,2-trifluoro-1-(5-fluoro-1-neopentyl-6-(2-(trifluoromethyl)phenyl)-1H-indol-3-yl)ethyl)tetrahydrofuran-3-sulfonamide]
20 | < 500 nM | CC(C)(C)Cn1cc([C@H](NS(=O)(=O)C2CC2)C(F)(F)F)c2ccc(-c3ccccc3C#N)cc21 [Example 462, (S)—N-(1-(6-(2-cyanophenyl)-1-neopentyl-1H-indol-3-yl)-2,2,2-trifluoroethyl)cyclopropanesulfonamide]
21 | < 500 nM | Cc1cccc(C(F)(F)F)c1-c1ccc2c([C@H](NS(=O)(=O)C3CC3)C(F)(F)F)cn(CC(C)(C)C)c2c1 [Example 463, (S)—N-(2,2,2-trifluoro-1-(6-(2-methyl-6-(trifluoromethyl)phenyl)-1-neopentyl-1H-indol-3-yl)ethyl)cyclopropanesulfonamide]
22 | < 500 nM | CC(C)(C)Cn1cc([C@H](NS(=O)(=O)C2CC2)C(F)(F)F)c2ccc(-c3c(F)cccc3Cl)cc21 [Example 464, (S)—N-(1-(6-(2-chloro-6-fluorophenyl)-1-neopentyl-1H-indol-3-yl)-2,2,2-trifluoroethyl)cyclopropanesulfonamide]
23 | 500 to 3000 nM | CC(C)(C)Cn1cc([C@H](NS(=O)(=O)C2CC2)C(F)(F)F)c2cc(F)c(-c3cscn3)cc21 [Example 465, N-[(1S)-1-[1-(2,2-dimethylpropyl)-5-fluoro-6-thiazol-4-yl-indol-3-yl]-2,2,2-trifluoro-ethyl]cyclopropanesulfonamide]
24 | < 500 nM | CC(C)(C)Cn1cc([C@H](NS(=O)(=O)C2CC2)C(F)(F)F)c2ccc(-c3cccnc3C#N)cc21 [Example 466, (S)—N-(1-(6-(2-cyanopyridin-3-yl)-1-neopentyl-1H-indol-3-yl)-2,2,2-trifluoroethyl)cyclopropanesulfonamide]
25 | 500 to 3000 nM | CC(C)(C)Cn1cc([C@H](NS(=O)(=O)C2CC2)C(F)(F)F)c2ccc(-c3ncccc3Cl)cc21 [Example 467, (S)—N-(1-(6-(3-chloropyridin-2-yl)-1-neopentyl-1H-indol-3-yl)-2,2,2-trifluoroethyl)cyclopropanesulfonamide]
26 | < 500 nM | CC(C)(C)Cn1cc([C@H](NS(=O)(=O)C2CC2)C(F)(F)F)c2ccc(-c3ncccc3C#N)cc21 [Example 468, (S)—N-(1-(6-(3-cyanopyridin-2-yl)-1-neopentyl-1H-indol-3-yl)-2,2,2-trifluoroethyl)cyclopropanesulfonamide]
27 | 500 to 3000 nM | CC(C)(C)Cn1cc([C@H](NS(=O)(=O)C2CC2)C(F)(F)F)c2ccc(-c3ccccn3)cc21 [Example 469, (S)—N-(2,2,2-trifluoro-1-(1-neopentyl-6-(pyridin-2-yl)-1H-indol-3-yl)ethyl)cyclopropanesulfonamide]
28 | < 500 nM | CC(C)(C)Cn1cc([C@H](NS(=O)(=O)C2CC2)C(F)(F)F)c2ccc(-c3c(Cl)cncc3Cl)cc21 [Example 470, (S)—N-(1-(6-(3,5-dichloropyridin-4-yl)-1-neopentyl-1H-indol-3-yl)-2,2,2-trifluoroethyl)cyclopropanesulfonamide]
29 | 500 to 3000 nM | CN(C)C(=O)c1ccccc1-c1ccc2c([C@H](NS(=O)(=O)C3CC3)C(F)(F)F)cn(CC(C)(C)C)c2c1 [Example 471, (S)-2-(3-(1-(cyclopropanesulfonamido)-2,2,2-trifluoroethyl)-1-neopentyl-1H-indol-6-yl)-N,N-dimethylbenzamide]
30 | < 500 nM | CC(C)(C)Cn1cc([C@H](NS(=O)(=O)C2CC2)C(F)(F)F)c2ccc(-c3ccc(F)cc3C#N)cc21 [Example 472, (S)—N-(1-(6-(2-cyano-4-fluorophenyl)-1-neopentyl-1H-indol-3-yl)-2,2,2-trifluoroethyl)cyclopropanesulfonamide]
